Assays:
TFEB = experiment: High content screen measuring TFEB nuclear accumulation (TFEB nuclear/cytosol ratio) in BEAS-2B cells stably expressing TFEB-EGFP; assay type: cell-based, human; conditions: 18 hours incubation
In short: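 BEAS-2B cells stably expressing TFEB-EGFP (~2300–2500 per well) pre-incubated 8 hours, then exposed to serially diluted compounds (DMEM low glucose, 2% FBS) for 18 hours, PFA-fixed and DAPI-stained. Imaged nuclear (DAPI mask) vs cytosolic (expanded mask) TFEB-GFP; activity = minimal concentration raising nuclear/cytosol ratio by 25%.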

BEAS-2B cells = experiment: Toxicity: compound concentration needed to induce greater than 50 percent of cell loss; assay type: cell-based, human; conditions: 18 hours incubation
In short: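 BEAS-2B cells stably expressing TFEB-EGFP treated with serial compound dilutions for 18 h, then PFA-fixed, DAPI-stained and imaged. Toxicity scored as the concentration causing >50% cell loss, binned as ≥25 μM, <25 and >1 μM, or ≤1 μM ("+++").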

Row | SMILES | efficacy (minimal compound concentration needed to increase TFEB nuclear/cytosol ratio by 25%) (TFEB) | toxicity (compound concentration needed to induce greater than 50 percent of cell loss) (BEAS-2B cells)
1 | CCc1cc(C)cc(Nc2nc(-c3ccncc3)nc3ccccc23)c1 [Compound 22] | + (“+” equals >25 μM) | + (cell loss of greater than 50 percent at a concentration that equals or is greater than 25 μM was represented as)
2 | COc1cc(F)cc(Nc2nc(-c3ccncc3)nc3ccccc23)c1 [Compound 19] | + (“+” equals >25 μM) | + (cell loss of greater than 50 percent at a concentration that equals or is greater than 25 μM was represented as)
3 | FC(F)(F)c1nc2ccc(Nc3nc(-c4ccncc4)nc4ncccc34)cc2o1 [Compound 358] | ++ (“++” equals between ≤25 μM and >1 μM) | + (cell loss of greater than 50 percent at a concentration that equals or is greater than 25 μM was represented as)
4 | NC(=O)c1cccc(Nc2nc(-c3ccncc3)nc3ccccc23)c1 [Compound 3] | +++ (“+++” equals ≤1 μM) | + (cell loss of greater than 50 percent at a concentration that equals or is greater than 25 μM was represented as)
5 | c1ccc2c(Nc3ccc4[nH]cnc4c3)nc(-c3ccncc3)nc2c1 [Compound 193] | ++ (“++” equals between ≤25 μM and >1 μM) | ++ (cell loss of greater than 50 percent at a concentration less than 25 μM and greater than 1 μM was represented as)
6 | CC(C)c1nc2ccc(Nc3nc(-c4ccncc4)nc4ccccc34)cc2o1 [Compound 374] | ++ (“++” equals between ≤25 μM and >1 μM) | + (cell loss of greater than 50 percent at a concentration that equals or is greater than 25 μM was represented as)
7 | Clc1cccc(Nc2nc(-c3ccncc3)nc3ccccc23)c1 [Compound 187] | +++ (“+++” equals ≤1 μM) | + (cell loss of greater than 50 percent at a concentration that equals or is greater than 25 μM was represented as)
8 | COc1ccc2c(Nc3cc(F)c4[nH]ccc4c3)nc(-c3ccncc3)nc2c1 [Compound 370] | +++ (“+++” equals ≤1 μM) | + (cell loss of greater than 50 percent at a concentration that equals or is greater than 25 μM was represented as)
9 | Fc1ccc2nc(-c3ccncc3)nc(Nc3ccc4[nH]ccc4c3)c2c1 [Compound 110] | +++ (“+++” equals ≤1 μM) | + (cell loss of greater than 50 percent at a concentration that equals or is greater than 25 μM was represented as)
10 | COc1ccc(NC(=O)Cn2c(=O)n(-c3ccc(C)cc3)c(=O)c3ccccc32)cc1 [Compound 220] | + (“+” equals >25 μM) | + (cell loss of greater than 50 percent at a concentration that equals or is greater than 25 μM was represented as)
11 | Cc1cccc(Nc2nc(-c3ccncc3C)nc3ccccc23)c1 [Compound 54] | + (“+” equals >25 μM) | + (cell loss of greater than 50 percent at a concentration that equals or is greater than 25 μM was represented as)
12 | Cc1cc(F)cc(Nc2nc(-c3ccncc3)nc3ccccc23)c1 [Compound 184] | ++ (“++” equals between ≤25 μM and >1 μM) | + (cell loss of greater than 50 percent at a concentration that equals or is greater than 25 μM was represented as)
13 | Fc1cc(Nc2nc(N3CCOCC3)nc3ncccc23)cc2cc[nH]c12 [Compound 384] | +++ (“+++” equals ≤1 μM) | + (cell loss of greater than 50 percent at a concentration that equals or is greater than 25 μM was represented as)
14 | c1ccc2c(Nc3ccc4[nH]ccc4c3)nc(-c3cc[nH]c3)nc2c1 [Compound 104] | +++ (“+++” equals ≤1 μM) | + (cell loss of greater than 50 percent at a concentration that equals or is greater than 25 μM was represented as)
15 | c1cnc2nc(-c3ccncc3)nc(Nc3ccc4cn[nH]c4c3)c2c1 [Compound 135] | ++ (“++” equals between ≤25 μM and >1 μM) | + (cell loss of greater than 50 percent at a concentration that equals or is greater than 25 μM was represented as)
16 | Fc1ccc(Nc2nc(-c3ccncc3)nc3ccccc23)cc1 [Compound 181] | +++ (“+++” equals ≤1 μM) | + (cell loss of greater than 50 percent at a concentration that equals or is greater than 25 μM was represented as)
17 | Oc1ccc(-c2nc(Nc3cccc(F)c3)c3ccccc3n2)cc1 [Compound 65] | + (“+” equals >25 μM) | + (cell loss of greater than 50 percent at a concentration that equals or is greater than 25 μM was represented as)
18 | COc1ccc(-n2c(=O)c3ccc(C(=O)NCCc4ccccc4)cc3n(Cc3cccc(F)c3)c2=O)cc1 [Compound 236] | ++ (“++” equals between ≤25 μM and >1 μM) | + (cell loss of greater than 50 percent at a concentration that equals or is greater than 25 μM was represented as)
19 | Cc1cccc2c(Nc3cc(F)c4[nH]ccc4c3)nc(-c3ccncc3)nc12 [Compound 156] | +++ (“+++” equals ≤1 μM) | + (cell loss of greater than 50 percent at a concentration that equals or is greater than 25 μM was represented as)
20 | Fc1cccc(Nc2nc(-c3cncs3)nc3ccccc23)c1 [Compound 79] | + (“+” equals >25 μM) | + (cell loss of greater than 50 percent at a concentration that equals or is greater than 25 μM was represented as)
21 | c1ccc2c(Nc3ccc4[nH]ncc4c3)nc(N3CCOCC3)nc2c1 [Compound 44] | +++ (“+++” equals ≤1 μM) | + (cell loss of greater than 50 percent at a concentration that equals or is greater than 25 μM was represented as)
22 | C=CCn1c(=O)c2ccc(C(=O)NCc3ccccc3)cc2n(Cc2ccc(C)cc2)c1=O [Compound 233] | + (“+” equals >25 μM) | + (cell loss of greater than 50 percent at a concentration that equals or is greater than 25 μM was represented as)
23 | CCN(c1ccc2[nH]ccc2c1)c1nc(-c2ccncc2)nc2ccccc12 [Compound 72] | +++ (“+++” equals ≤1 μM) | +++ (cell loss of greater than 50 percent at a concentration that equals or is less than 1 μM was represented as “+++.”)
24 | Fc1cc(Nc2nc(-c3ccncc3)nc3ccccc23)cc2cc[nH]c12 [Compound 71] | +++ (“+++” equals ≤1 μM) | + (cell loss of greater than 50 percent at a concentration that equals or is greater than 25 μM was represented as)
25 | CC(C)(C)c1cc2cc(Nc3nc(-c4ccncc4)nc4ncccc34)ccc2[nH]1 [Compound 134] | +++ (“+++” equals ≤1 μM) | + (cell loss of greater than 50 percent at a concentration that equals or is greater than 25 μM was represented as)
26 | CC(=O)c1cc(C)cc(Nc2nc(-c3ccncc3)nc3ccccc23)c1 [Compound 52] | + (“+” equals >25 μM) | + (cell loss of greater than 50 percent at a concentration that equals or is greater than 25 μM was represented as)
27 | CC(C)(C)c1nc2ccc(Nc3nc(-c4ccncc4)nc4ccccc34)cc2s1 [Compound 93] | + (“+” equals >25 μM) | + (cell loss of greater than 50 percent at a concentration that equals or is greater than 25 μM was represented as)
28 | C1=C(c2nc(Nc3ccc4[nH]ncc4c3)c3ccccc3n2)CCNC1 [Compound 75] | + (“+” equals >25 μM) | + (cell loss of greater than 50 percent at a concentration that equals or is greater than 25 μM was represented as)
29 | c1ccc2c(Nc3ccc4[nH]c5c(c4c3)CCCC5)nc(-c3ccncc3)nc2c1 [Compound 73] | +++ (“+++” equals ≤1 μM) | +++ (cell loss of greater than 50 percent at a concentration that equals or is less than 1 μM was represented as “+++.”)
